Experimental findings from ChEMBL document CHEMBL2177051 are described below.

Molecules are shown by their SMILES. The source made the active and inactive calls. No cut-off for these calls is given here.

Common to all, as to details: Homo sapiens
Test [1] concerns HEK293. The test can be described thus: Inhibition of proteasome beta5 in HEK cell lysates at 1 to 100 uM after 1 hr by MV151 competitive SDS-PAGE analysis.
In test [2] the test system is HEK293. The test can be described thus: Inhibition of proteasome beta2 in HEK cell lysates at 1 to 100 uM after 1 hr by MV151 competitive SDS-PAGE analysis.
In test [3] the test system is HEK293. The experiment in a line: Inhibition of proteasome beta1 in HEK cell lysates at 1 to 100 uM after 1 hr by MV151 competitive SDS-PAGE analysis.
Test [4] concerns HEK293. The experiment in a line: Inhibition of proteasome beta2 in HEK cell at 50 uM after 3 hrs by MV151 competitive SDS-PAGE analysis. In kind it is cell-based.
In test [5] the test system is HEK293. The experiment in a line: Inhibition of proteasome beta1 in HEK cell at 50 uM after 3 hrs by MV151 competitive SDS-PAGE analysis. In kind it is cell-based.
Test [6] relates to HEK293. The experiment in a line: Inhibition of proteasome beta5 in HEK cell at 5 uM after 3 hrs by MV151 competitive SDS-PAGE analysis. In kind it is cell-based.

For `CC(C)C[C@@H](CS(=O)(=O)F)NC(=O)[C@H](CC(C)C)NC(=O)[C@H](CC(C)C)NC(=O)OC(C)(C)C`, the inhibition result in test [1], in test [2] and in test [3] was “Active” each time.
Consider `CC[C@H](C)[C@H](NC(=O)OC(C)(C)C)C(=O)N[C@H](C(=O)N[C@@H](CC(C)C)CS(=O)(=O)F)[C@@H](C)OCc1ccccc1`, for which the inhibition entry in test [1], in test [2] and in test [3] was “Active” each time.
In the case of `CC[C@H](C)[C@H](NC(C)=O)C(=O)N[C@H](C(=O)N[C@H](C(=O)N[C@@H](CC(C)C)CS(=O)(=O)F)[C@@H](C)O)[C@@H](C)CC`, the inhibition result in test [1], in test [2] and in test [3] was “Active” throughout.
For `CC[C@H](C)[C@H](NC(=O)OC(C)(C)C)C(=O)N[C@H](C(=O)N[C@H](C(=O)N[C@@H](CC(C)C)CS(=O)(=O)F)[C@@H](C)OCc1ccccc1)[C@@H](C)CC`, the inhibition result in test [1], in test [2] and in test [3] was “Active” in each case.
With `CC(C)C[C@@H](CS(=O)(=O)F)NC(=O)[C@H](CC(C)C)NC(=O)[C@@H](N)CC(C)C`, the inhibition entry in test [1], in test [2] and in test [3] was “Active” throughout.
Take `CC(C)C[C@@H](CS(=O)(=O)F)NC(=O)[C@H](Cc1ccccc1)NC(=O)c1cnccn1`: the inhibition result in test [1], in test [2] and in test [3] was “inactive” each time.
Regarding `CC(C)C[C@@H](CS(=O)(=O)F)NC(=O)[C@H](CC(C)C)NC(=O)[C@H](CC(C)C)NC(=O)[C@@H](N)CC(C)C`, the inhibition entry in test [1], in test [2] and in test [3] was “Active” each time.
On to `CC(C)C[C@@H](CS(=O)(=O)F)NC(=O)[C@H](CC(C)C)NC(=O)[C@H](CC(C)C)NC(=O)[C@H](Cc1ccccc1)N=[N+]=[N-]`, for which the inhibition entry in test [1], in test [2] and in test [3] was “Active” throughout.
Consider `CC(C)C[C@@H](CS(=O)(=O)F)NC(=O)[C@H](CC(C)C)NC(=O)[C@H](CC(C)C)NC(=O)OCc1ccccc1`, for which the inhibition result in test [1], in test [2] and in test [3] was “Active” throughout.
Turning to `CC(C)C[C@@H](CS(=O)(=O)F)NC(=O)[C@@H](N)Cc1ccccc1`, the inhibition result in test [1], in test [2] and in test [3] was “inactive” in each case.
Regarding `CC[C@H](C)[C@H](NC(=O)CN=[N+]=[N-])C(=O)N[C@H](C(=O)N[C@H](C(=O)N[C@@H](CC(C)C)CS(=O)(=O)F)[C@@H](C)OC(C)=O)[C@@H](C)CC`, the inhibition result in test [1], in test [2] and in test [3] was “Active” throughout.
Turning to `CC[C@H](C)[C@H](N)C(=O)N[C@H](C(=O)N[C@@H](CC(C)C)CS(=O)(=O)F)[C@@H](C)OCc1ccccc1`, the inhibition entry in test [1], in test [2] and in test [3] was “Active” each time.
As to `CC(C)C[C@@H](CS(=O)(=O)F)NC(=O)[C@@H](N)[C@@H](C)OCc1ccccc1`, the inhibition entry in test [1], in test [2] and in test [3] was “inactive” each time.
For `CC[C@H](C)[C@H](NC(=O)CN=[N+]=[N-])C(=O)N[C@H](C(=O)N[C@H](C(=O)N[C@@H](CC(C)C)CS(=O)(=O)F)[C@@H](C)O)[C@@H](C)CC`, the inhibition entry in test [1], in test [2] and in test [3] was “Active” each time.
For `CC[C@H](C)[C@H](NC(C)=O)C(=O)N[C@H](C(=O)N[C@H](C(=O)N[C@@H](CC(C)C)CS(=O)(=O)F)[C@@H](C)OCc1ccccc1)[C@@H](C)CC`, the inhibition entry in test [1], in test [2] and in test [3] was “Active” in each case.
As to `CC(C)C[C@@H](CS(=O)(=O)F)NC(=O)[C@H](CC(C)C)NC(=O)[C@H](CC(C)C)NC(=O)[C@H](CC(C)C)NC(=O)OCc1ccccc1`, the inhibition entry in test [4], in test [5], in test [6], in test [1], in test [2] and in test [3] was “Active” throughout.
`CC(=O)N[C@@H](CC(C)C)C(=O)N[C@@H](CC(C)C)C(=O)N[C@@H](CC(C)C)C(=O)N[C@@H](CC(C)C)CS(=O)(=O)F`: the inhibition entry in test [1], in test [2] and in test [3] was “Active” each time.
In the case of `CC[C@H](C)[C@H](N)C(=O)N[C@H](C(=O)N[C@H](C(=O)N[C@@H](CC(C)C)CS(=O)(=O)F)[C@@H](C)O)[C@@H](C)CC`, the inhibition entry in test [1], in test [2] and in test [3] was “Active” in each case.
Take `CC[C@H](C)[C@H](N)C(=O)N[C@H](C(=O)N[C@@H](CC(C)C)CS(=O)(=O)F)[C@@H](C)O`: the inhibition result in test [1], in test [2] and in test [3] was “Active” each time.
In the case of `CC[C@H](C)[C@H](N)C(=O)N[C@H](C(=O)N[C@H](C(=O)N[C@@H](CC(C)C)CS(=O)(=O)F)[C@@H](C)OCc1ccccc1)[C@@H](C)CC`, the inhibition result in test [1], in test [2] and in test [3] was “Active” throughout.
